Consider six compounds from EP0345153A1, “Affinity markers for hormonal steroid receptors, their use in hormonoradio therapy and as imaging agents of hormone-dependent cancers” (LA REGION WALLONNE, priority 1988, dated 1989).

The target in test [1] is T1, récepteurs nucléaires de l'oestradiol d'utérus de brebis (Ovis aries, UniProt A0ACI6Q0N8).
T1 sequence (A0ACI6Q0N8 1-596): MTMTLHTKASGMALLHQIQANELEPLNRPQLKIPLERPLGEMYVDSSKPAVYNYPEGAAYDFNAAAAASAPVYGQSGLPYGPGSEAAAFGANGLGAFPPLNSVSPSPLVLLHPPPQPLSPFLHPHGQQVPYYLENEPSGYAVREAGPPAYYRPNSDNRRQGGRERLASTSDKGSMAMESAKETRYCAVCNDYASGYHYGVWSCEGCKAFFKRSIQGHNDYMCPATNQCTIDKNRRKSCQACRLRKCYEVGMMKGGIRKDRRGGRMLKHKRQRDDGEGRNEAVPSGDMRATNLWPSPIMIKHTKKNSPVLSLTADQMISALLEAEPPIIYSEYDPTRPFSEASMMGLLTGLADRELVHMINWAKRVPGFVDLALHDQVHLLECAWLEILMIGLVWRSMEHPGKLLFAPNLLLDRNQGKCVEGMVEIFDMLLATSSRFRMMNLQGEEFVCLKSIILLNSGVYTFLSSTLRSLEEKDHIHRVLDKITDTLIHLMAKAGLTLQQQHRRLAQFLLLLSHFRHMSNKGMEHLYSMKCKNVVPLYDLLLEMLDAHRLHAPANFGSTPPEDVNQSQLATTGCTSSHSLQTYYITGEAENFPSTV
Put plainly: Irreversible binding to nuclear estradiol receptors in ewe uterus nuclear extract (exchange with 10 nM tritiated estradiol, protamine sulfate precipitation). The protocol:
La nature irréversible de l'intéraction du composé 12 avec le récepteur a été démontrée en incubant un extrait nucléaire d'utérus de brebis en présence de molarités variables de complexe 12. A la fin du temps . d'incubation, l'hormone libre, présente dans le milieu, est éliminée par traitement au charbon dextran. Les fractions d'extrait nucléaire sont ensuite incubées à 20°C pendant 17 h. en présence de 10 nM d'oestradiol tritié. La fraction d'oestradiol tritiée liée (qui représente la quantité de récepteur qui n'a pas été marquée de façon covalente) est déterminée après précipitation des fractions liées au sulfate de protamine (9b). Les résultats sont rassemblés dans le tableau suivant

Test [2] has as its system récepteur de l'oestradiol. Put plainly: Relative binding affinity (A.R.L) for the estradiol receptor. Conditions: vis-à-vis du récepteur de l'oestradiol. The source says:
Dans cette optique, des composés tels que 7 et 8 sont préparés (9b). Ils portent des petits clusters en 17a-et couvrent une gamme de valeurs de PKR+ de -6 pour 7 à +3 pour 8.

Test [3] deals with récepteur de l'oestradiol. Conditions: cited from earlier work.
Test [4] has as its target T2, Récepteur de la progestérone (Homo sapiens, UniProt P06401).
T2 sequence (P06401 1-933): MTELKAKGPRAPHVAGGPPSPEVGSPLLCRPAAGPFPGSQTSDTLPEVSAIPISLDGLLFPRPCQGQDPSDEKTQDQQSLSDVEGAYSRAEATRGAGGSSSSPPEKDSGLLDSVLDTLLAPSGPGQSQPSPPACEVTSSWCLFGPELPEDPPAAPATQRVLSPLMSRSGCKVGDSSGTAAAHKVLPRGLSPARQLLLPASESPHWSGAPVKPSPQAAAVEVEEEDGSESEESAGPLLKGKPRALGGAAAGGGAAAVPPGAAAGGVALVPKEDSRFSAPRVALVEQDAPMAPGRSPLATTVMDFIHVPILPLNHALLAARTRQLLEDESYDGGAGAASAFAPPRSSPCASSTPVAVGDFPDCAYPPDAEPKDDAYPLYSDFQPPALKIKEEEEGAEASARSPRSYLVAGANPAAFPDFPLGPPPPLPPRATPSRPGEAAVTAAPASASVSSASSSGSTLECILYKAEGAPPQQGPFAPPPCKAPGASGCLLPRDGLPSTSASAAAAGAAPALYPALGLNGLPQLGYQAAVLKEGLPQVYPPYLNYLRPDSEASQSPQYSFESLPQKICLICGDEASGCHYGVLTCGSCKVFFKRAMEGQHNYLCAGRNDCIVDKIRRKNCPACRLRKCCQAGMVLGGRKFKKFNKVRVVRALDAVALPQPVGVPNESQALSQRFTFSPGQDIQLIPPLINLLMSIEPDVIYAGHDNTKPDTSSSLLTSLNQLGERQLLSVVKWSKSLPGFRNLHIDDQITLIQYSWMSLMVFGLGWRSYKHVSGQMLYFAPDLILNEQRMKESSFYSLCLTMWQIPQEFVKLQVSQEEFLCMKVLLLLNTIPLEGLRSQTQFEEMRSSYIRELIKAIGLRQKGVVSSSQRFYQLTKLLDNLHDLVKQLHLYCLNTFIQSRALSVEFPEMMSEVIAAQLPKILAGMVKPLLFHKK
Conditions: photochemically activated, after 1H; cited from earlier work.

The target in test [5] is T3, Récepteur des glucocorticoîdes (Homo sapiens, UniProt P04150).
T3 sequence (P04150 1-777): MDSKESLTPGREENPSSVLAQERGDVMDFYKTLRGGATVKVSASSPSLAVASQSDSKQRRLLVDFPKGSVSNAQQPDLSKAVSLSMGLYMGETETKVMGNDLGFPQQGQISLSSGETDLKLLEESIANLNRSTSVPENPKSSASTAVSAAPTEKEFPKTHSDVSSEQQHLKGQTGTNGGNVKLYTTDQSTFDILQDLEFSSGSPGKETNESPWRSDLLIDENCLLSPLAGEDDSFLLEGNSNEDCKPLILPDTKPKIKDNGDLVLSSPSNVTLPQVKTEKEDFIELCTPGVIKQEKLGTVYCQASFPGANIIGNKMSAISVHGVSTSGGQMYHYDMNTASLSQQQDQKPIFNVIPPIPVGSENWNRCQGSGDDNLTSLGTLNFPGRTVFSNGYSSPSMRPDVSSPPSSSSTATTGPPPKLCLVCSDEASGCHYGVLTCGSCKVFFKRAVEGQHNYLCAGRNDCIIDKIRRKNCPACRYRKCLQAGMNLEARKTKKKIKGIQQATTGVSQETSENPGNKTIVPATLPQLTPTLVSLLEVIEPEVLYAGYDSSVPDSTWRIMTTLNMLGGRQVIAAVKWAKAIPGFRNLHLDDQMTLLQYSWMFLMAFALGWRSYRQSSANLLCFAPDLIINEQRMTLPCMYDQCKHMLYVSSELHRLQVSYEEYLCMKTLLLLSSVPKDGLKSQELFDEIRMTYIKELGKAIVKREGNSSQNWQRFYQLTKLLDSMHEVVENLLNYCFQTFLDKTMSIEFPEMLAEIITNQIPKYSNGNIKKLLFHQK
Conditions: whole cells; cited from earlier work.

For the compound `CC12CCC3c4ccc(O)cc4CCC3C1CCC2(O)[c-]1cccc1.[Fe+2].c1cc[cH-]c1` (stereo not drawn) [compound 12, 17α-Ferrocényl-17β-oestradiol], the “% d'inhibition de la liaison de l'oestradiol” value in test [1] (incubation molarity 2 nM) is 50%; in test [1] (incubation molarity 5 nM), 71%; in test [1] (incubation molarity 10 nM), 81%. Besides, the “affinité relative de liaison (A.R.L)” value in test [2] came to 13%.
For azide de l'hexestrol [compound 3], the “efficacité d'inactivation” value in test [3] (photochemical route) is given as 10-15%.
`CCC(=O)[C@@]1(C)CC[C@H]2[C@@H]3CCC4=CC(=O)CCC4=C3CC[C@@]21C` [compound 1, R5020]: the Marquage in test [4] is 15%.
Take Dexaméthasone-mésylate-21 [compound 2]: in test [5], the “liaison non-spécifique” value is reported as “Taux élevé de liaison non-spécifique”.
Regarding `C[C@]12C[C@H](CCl)[C@@H]3c4ccc(O)cc4CC[C@H]3[C@@H]1CC[C@@H]2O` [compound 6, chlorométhyl 11β-oestradiol], the “marqueur d'affinité du récepteur de l'oestradiol” value in test [3] is reported as “n'en étant pas un”.
For the compound `C[C@]12CC[C@@H]3c4ccc(O)cc4CC[C@H]3[C@@H]1CC[C@@]2(O)c1ccccc1` [[17α-C6H5]-17β-oestradiol], in test [2], the “affinité relative de liaison (A.R.L)” value amounted to 25%.
